Experiments:
CK1ε = CK1ε (Homo sapiens (Human), UniProt P49674); experiment: CK1ε kinase assay (Caliper LABCHIP electrophoretic separation of fluoresceinated peptide substrate and product); type: biochemical; conditions: 200 pM enzyme, 50 μM ATP, 22 hours at room temperature
Summary of the method: (§1)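 Reactions ran 22 hours at room temperature and were stopped with EDTA. Phosphorylated product and unphosphorylated substrate were then separated electrophoretically. Compounds were tested at eleven concentrations, and IC50 values came from non-linear regression.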

CK1δ = CK1δ (Homo sapiens (Human), UniProt P48730); experiment: CK1δ kinase assay (Caliper LABCHIP electrophoretic separation of fluoresceinated peptide substrate and product); type: biochemical; conditions: 200 pM enzyme, 50 μM ATP, 22 hours at room temperature
Summary of the method: as §1

Chain of CK1δ (P48730 whole entry): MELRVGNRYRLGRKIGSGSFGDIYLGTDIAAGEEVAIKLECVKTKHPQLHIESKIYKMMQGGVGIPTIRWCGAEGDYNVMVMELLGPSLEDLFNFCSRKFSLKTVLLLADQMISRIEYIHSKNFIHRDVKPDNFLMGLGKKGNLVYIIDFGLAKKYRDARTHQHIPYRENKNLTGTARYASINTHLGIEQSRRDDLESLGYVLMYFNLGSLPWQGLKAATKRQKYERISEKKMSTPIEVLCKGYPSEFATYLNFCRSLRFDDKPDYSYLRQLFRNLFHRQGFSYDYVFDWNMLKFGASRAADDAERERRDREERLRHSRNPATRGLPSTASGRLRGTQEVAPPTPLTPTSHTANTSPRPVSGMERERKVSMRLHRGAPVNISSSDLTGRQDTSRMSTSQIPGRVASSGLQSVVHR
Chain of CK1ε (P49674 whole entry): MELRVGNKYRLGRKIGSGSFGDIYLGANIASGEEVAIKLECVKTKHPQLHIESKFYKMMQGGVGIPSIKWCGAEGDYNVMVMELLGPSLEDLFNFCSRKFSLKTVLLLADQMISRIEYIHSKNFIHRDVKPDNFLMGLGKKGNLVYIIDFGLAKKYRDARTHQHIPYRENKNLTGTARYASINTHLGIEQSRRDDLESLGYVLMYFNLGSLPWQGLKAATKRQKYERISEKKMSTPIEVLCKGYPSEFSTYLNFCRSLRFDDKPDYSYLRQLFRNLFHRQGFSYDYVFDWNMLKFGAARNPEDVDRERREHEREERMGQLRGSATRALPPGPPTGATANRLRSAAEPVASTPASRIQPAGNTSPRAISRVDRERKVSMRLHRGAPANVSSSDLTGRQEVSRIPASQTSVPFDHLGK

| IC50 (CK1ε) [nM] | IC50 (CK1δ) [nM] | Compound |
| --- | --- | --- |
| 16.7 | 1.52 | COCCN1CCC(n2c(C3CC3)nc(-c3ccc(F)cc3)c2-c2ccc3nc(NC(=O)c4ccnc(F)c4)cn3n2)CC1 [Compound 120, N-(6-(2-cyclopropyl-4-(4-fluorophenyl)-1-(1-(2-methoxyethyl)piperidin-4-yl)-1H-imidazol-5-yl)imidazo[1,2-b]pyridazin-2-yl)-2-fluoroisonicotinamide] |
| 375 | 19.8 | Cc1nc(-c2ccc(F)cc2)c(-c2ccc3nc(NC(=O)[C@@H]4CCCN4)cn3n2)n1C [Compound 315, (S)-N-(6-(4-(4-fluorophenyl)-1,2-dimethyl-1H-imidazol-5-yl)imidazo[1,2-b]pyridazin-2-yl)pyrrolidine-2-carbox-amide] |
| 1.24 | 0.334 | Cc1nc(-c2cccnc2)sc1C(=O)Nc1cn2nc(-c3c(-c4ccc(F)cc4)ncn3C3CCN(C(=O)c4ccon4)CC3)ccc2n1 [Compound 101, N-(6-(4-(4-fluorophenyl)-1-(1-(isoxazole-3-carbonyl)piperidin-4-yl)-1H-imidazol-5-yl)imidazo[1,2-b]pyridazin-2-yl)-4-methyl-2-(pyridin-3-yl)thiazole-5-carboxamide] |
| 2.5 | 0.415 | O=C(Nc1cn2nc(-c3c(-c4ccc(F)cc4)ncn3CCN3CCOCC3)ccc2n1)c1ccnc(F)c1 [Compound 161, 2-fluoro-N-(6-(4-(4-fluorophenyl)-1-(2-morpholinoethyl)-1H-imidazol-5-yl)imidazo[1,2-b]pyridazin-2-yl) isonicotinamide] |
| 3.42 | 0.321 | Cc1noc(C)c1C(=O)N1CCC(n2cnc(-c3ccc(F)cc3)c2-c2ccc3nc(NC(=O)c4ccnc(F)c4)cn3n2)CC1 [Compound 57, N-(6-(1-(1-(3,5-dimethylisoxazole-4-carbonyl)piperidin-4-yl)-4-(4-fluorophenyl)-1H-imidazol-5-yl)imidazo[1,2-b]pyridazin-2-yl)-2-fluoroisonicotinamide] |
| 2.23 | 0.449 | CSCCCN1CCC(n2cnc(-c3ccc(F)cc3)c2-c2ccc3nc(NC(=O)c4ccnc(F)c4)cn3n2)CC1 [Compound 26, 2-fluoro-N-(6-(4-(4-fluorophenyl)-1-(1-(3-(methylthio)propyl)piperidin-4-yl)-1H-imidazol-5-yl)imidazo[1,2-b]pyridazin-2-yl)isonicotinamide] |
| 9.3 | 1 | COC(=O)N1CCn2c(nc(-c3ccc(F)cc3)c2-c2ccc3nc(NC(=O)c4ccnc(F)c4)cn3n2)C1 [Compound 474, Methyl 3-(2-(2-fluoroisonicotinamido)imidazo[1,2-b]pyridazin-6-yl)-2-(4-fluorophenyl)-5,6-dihydroimidazo[1,2-a]pyrazine-7(8H)-carboxylate] |
| 6.05 | 4.77 | N#Cc1ccc(-c2nc(C(F)(F)F)c(C(=O)Nc3cn4nc(-c5c(-c6ccc(F)cc6)nc6ccccn56)ccc4n3)s2)cc1 [Compound 190, 2-(4-cyanophenyl)-N-(6-(2-(4-fluorophenyl)imidazo [1,2-a]pyridin-3-yl)imidazo [1,2-b]pyridazin-2-yl)-4-(trifluoromethyl)thiazole-5-carboxamide] |
| 19.4 | 7.12 | Cc1nc(-c2ccc(F)cc2)c(-c2ccc3nc(NC(=O)c4cnccn4)cn3n2)n1C [Compound 388, N-(6-(4-(4-fluorophenyl)-1,2-dimethyl-1H-imidazol-5-yl)imidazo[1,2-b]pyridazin-2-yl)pyrazine-2-carboxamide] |
| 2.4 | 0.2 | O=C(Nc1cn2nc(-c3c(-c4ccc(F)cc4)nc4n3CCCC4)ccc2n1)c1ccncc1 [Compound 444, N-(6-(2-(4-Fluorophenyl)-5,6,7,8-tetrahydroimidazo[1,2-a]pyridin-3-yl)imidazo[1,2-b]pyridazin-2-yl)isonicotinamide] |
| 2.57 | 0.476 | Cc1nc(-c2ccc(F)cc2)c(-c2ccc3nc(NC(=O)c4ccns4)cn3n2)n1C [Compound 335, N-(6-(4-(4-fluorophenyl)-1,2-dimethyl-1H-imidazol-5-yl)imidazo[1,2-b]pyridazin-2-yl)-5-isothiazolecarboxamide] |
| 4.6 | 0.4 | O=C(Nc1cn2nc(-c3c(-c4ccc(F)cc4)nc4n3CCOC4)ccc2n1)c1cccc(-c2cccnc2)c1 [Compound 451, N-(6-(2-(4-Fluorophenyl)-6,8-dihydro-5H-imidazo[2,1-c][1,4]oxazin-3-yl)imidazo[1,2-b]pyridazin-2-yl)-3-(pyridin-3-yl)benzamide] |
| 5.29 | 0.204 | Cc1nc(-c2cccnc2)sc1C(=O)Nc1cn2nc(-c3c(-c4ccc(F)cc4)ncn3C3CNC3)ccc2n1 [Compound 153, N-(6-(1-(azetidin-3-yl)-4-(4-fluorophenyl)-1H-imidazol-5-yl)imidazo[1,2-b]pyridazin-2-yl)-4-methyl-2-(pyridin-3-yl)thiazole-5-carboxamide] |
| 3.7 | 0.6 | CC(=O)N1CCn2c(nc(-c3ccc(F)cc3)c2-c2ccc3nc(NC(=O)c4ccnc(F)c4)cn3n2)C1 [Compound 460, N-(6-(7-Acetyl-2-(4-fluorophenyl)-5,6,7,8-tetrahydroimidazo[1,2-a]pyrazin-3-yl)imidazo[1,2-b]pyridazin-2-yl)-2-fluoroisonicotinamide] |
| 2.3 | 0.1 | CC(C)(C)C(=O)N1CCn2c(nc(-c3ccc(F)cc3)c2-c2ccc3nc(NC(=O)c4ccnc(F)c4)cn3n2)C1 [Compound 464, 2-Fluoro-N-(6-(2-(4-fluorophenyl)-7-pivaloyl-5,6,7,8-tetrahydroimidazo[1,2-a]pyrazin-3-yl)imidazo[1,2-b]pyridazin-2-yl)isonicotinamide] |
| 11.4 | 10.3 | O=C(Nc1cn2nc(-c3c(-c4ccc(F)cc4)nc4ccccn34)ccc2n1)c1ccncc1 [Compound 186, N-(6-(2-(4-fluorophenyl)imidazo[1,2-a]pyridin-3-yl)imidazo[1,2-b]pyridazin-2-yl)isonicotinamide] |
| 5.95 | 0.126 | Cc1nc(-c2ccc(Cl)cc2)c(-c2ccc3nc(NC(=O)c4ccnc(F)c4)cn3n2)n1CC(F)(F)F [Compound 295, N-(6-(4-(4-chlorophenyl)-2-methyl-1-(2,2,2-trifluoroethyl)-1H-imidazol-5-yl)imidazo[1,2-b]pyridazin-2-yl)-2-fluoroisonicotin-amide] |
| 27.1 | 3.72 | O=C(Nc1cn2nc(-c3c(-c4ccc(F)cc4)nc(C4CC4)n3C3CCN(S(=O)(=O)C4CC4)CC3)ccc2n1)c1ccnc(F)c1 [Compound 124, N-(6-(2-cyclopropyl-1-(1-(cyclopropylsulfonyl)piperidin-4-yl)-4-(4-fluorophenyl)-1H-imidazol-5-yl)imidazo[1,2-b]pyridazin-2-yl)-2-fluoroisonicotinamide] |
| 3.09 | 0.446 | CC(C)(C)C(=O)N1CCC(n2cnc(-c3ccc(F)cc3)c2-c2ccc3nc(NC(=O)c4ccnc(F)c4)cn3n2)CC1 [Compound 54, 2-fluoro-N-(6-(4-(4-fluorophenyl)-1-(1-pivaloylpiperidin-4-yl)-1H-imidazol-5-yl)imidazo[1,2-b]pyridazin-2-yl)isonicotinamide] |
